For eight compounds, EC50, IC50 and AC50 results are on record in ChEMBL document CHEMBL1201862, “PubChem BioAssay data set” (2004).

Active and inactive are the calls of the source.

The nature of assay [1]: cells. Format: functional, cell-based.
A short description of assay [2]: cells. Format: functional, cell-based. The source holds these as a separate data set.
Assay [3] addresses Fructose-bisphosphate aldolase (Mycobacterium tuberculosis, UniProt P9WQA3). Description: Fluorescence-based biochemical high throughput dose response assay for inhibitors of the fructose-bisphosphate aldolase (FBA) of M. tuberculosis. Format: functional.
Assay [4] concerns the target T1, Trace amine-associated receptor 1 (Homo sapiens, UniProt Q96RJ0).
T1 sequence (Q96RJ0 whole entry): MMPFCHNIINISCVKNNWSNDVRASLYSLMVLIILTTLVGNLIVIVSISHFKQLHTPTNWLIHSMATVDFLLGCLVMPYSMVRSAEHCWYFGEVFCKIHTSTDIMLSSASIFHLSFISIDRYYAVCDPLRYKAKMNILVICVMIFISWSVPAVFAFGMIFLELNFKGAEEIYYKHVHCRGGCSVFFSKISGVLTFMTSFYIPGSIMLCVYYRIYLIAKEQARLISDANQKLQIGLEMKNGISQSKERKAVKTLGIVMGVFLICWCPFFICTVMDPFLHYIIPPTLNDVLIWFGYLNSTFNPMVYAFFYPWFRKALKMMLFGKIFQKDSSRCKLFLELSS
Description: Fluorescence-based cell-based high throughput dose response assay to identify agonists of the human trace amine associated receptor 1 (TAAR1). Format: functional.

Assay [5] has as its target T1, Trace amine-associated receptor 1. Description: Counterscreen for agonists of the human trace amine associated receptor 1 (hTAAR1): Fluorescence-based cell-based high throughput dose response assay to identify hTAAR1 agonist that also desensitize TAAR1 receptor response. The format is functional. (Counterscreens check selectivity or assay interference.)
The nature of assay [6]: Trypanosoma cruzi growth suppression in host cells – NIH3T3 host cells, beta-gal luminescence, confirmation (AID 2044).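 Further: intracellular parasites grown in NIH/3T3 mouse fibroblasts as host cells; luminescent beta-galactosidase reporter signal from transgenic T. cruzi replicating inside host cells; inhibitors lower the luminescence signal.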 The format is functional, cell-based.
Assay [7] deals with INS1. Description: INS-1E survival protection against cytokine death – cell-based, luminescence, retest, dose response (AID 449756).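 Further: cell death triggered by IL-1 beta plus TNF-alpha plus IFN-gamma mixture; protective hits raise ATP signal compared with cytokine alone wells.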 The following applies: Rattus norvegicus. Format: functional.
Assay [8] is described as follows: NIH-3T3 fibroblast cytotoxicity, dose response, cytotoxicity control, cell-based, fluorescence, Alamar Blue, secondary assay (AID 2327).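 Further: NIH-3T3 mouse fibroblasts cultured with fluconazole at 8 µg/mL.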 Format: functional. (Alamar Blue is a resazurin reagent that responds to reducing activity.)
The target of assay [9] is COUP transcription factor 2 (Homo sapiens, UniProt P24468). Description: Luminescence-based cell-based high throughput dose response assay to identify inhibitors of COUP-TFII (NR2F2). Format: functional.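 Further: HEK293 cells transiently cotransfected with COUP-TFII expression vector and reporter; luciferase reporter luminescence driven by COUP-TFII from the pX2-168 reporter plasmid.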
The nature of assay [10]: fluconazole-exposed Candida albicans growth modulators – fluorescence, retest, confirmation (AID 2467). The format is functional, cell-based.
The nature of assay [11]: HEK-293T cell viability reduction – luminescence, B-cell screen hits, cytotoxicity control for BCR NF-kB inhibitor project, dose response (AID 489021).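 Further: HEK-293T cells carrying an NF-kB luciferase reporter; cells exposed to compound for about 14 hours before viability readout.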 Format: functional, cell-based.
Assay [12] can be described thus: NIH3T3 cell viability loss – ATP luminescence, mouse fibroblasts, counter-screen, dose response (AID 2010).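 Further: cells exposed to compound for about 90 hours before reading.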 The format is functional, cell-based.
Assay [13] in a line: cells. Format: functional, cell-based. The source holds these as a separate data set.
For assay [14], the target named is Nuclear receptor subfamily 0 group B member 1 (Homo sapiens, UniProt P51843). Format: functional, cell-based.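 Further: HEK293T cells transfected with SF-1 and DAX-1 plus StAR promoter luciferase reporter.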
Assay [15] concerns the target Major prion protein (Homo sapiens, UniProt P04156). The format is functional, cell-based.
Assay [16] in a line: cells.
The nature of assay [17]: cells. The format is functional, cell-based. The following applies: HEK-CNG.
Assay [18] concerns the target Galanin receptor type 3 (Homo sapiens, UniProt O60755). In words: Fluorescence-based cell-based primary high throughput dose response assay to identify antagonists of the Galanin Receptor 3 (GalR3). The format is functional.
Assay [19] concerns the target 26S proteasome non-ATPase regulatory subunit 14 (Homo sapiens, UniProt O00487). Description: inhibition of proteasome subunit RPN11 – biochemical, fluorescence polarization, uHTS hits, confirmation (AID 602368). The format is functional. Background: Polarisation of emitted light reports the rotation of a fluorescent probe.
The target of assay [20] is T2, RNA-binding protein pos-1 (Caenorhabditis elegans, UniProt G5EF15).
T2 sequence (G5EF15 whole entry): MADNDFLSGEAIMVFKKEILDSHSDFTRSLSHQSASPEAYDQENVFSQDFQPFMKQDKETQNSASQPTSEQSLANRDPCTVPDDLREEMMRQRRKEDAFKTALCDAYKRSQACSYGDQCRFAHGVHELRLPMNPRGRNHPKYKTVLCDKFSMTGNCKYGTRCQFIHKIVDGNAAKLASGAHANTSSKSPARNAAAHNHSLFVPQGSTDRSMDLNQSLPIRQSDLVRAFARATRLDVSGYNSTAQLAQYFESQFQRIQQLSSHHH
Description: disruptors of C. elegans POS-1 RNA interaction – biochemical, fluorescence polarization, dose response (AID 1964).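 Further: purified POS-1 fused to maltose binding protein made in E. coli; potency of compounds blocking POS-1 binding to fluorescent RNA.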

Assay [21] addresses 72 kDa type IV collagenase (Homo sapiens, UniProt P08253). In words: Dose Response validation of uHTS RPN11 inhibitor hits using a MMP-2 Fluorescence assay. The format is functional.
The target in assay [22] is Albumin (Bos taurus, UniProt P02769). Description: Counterscreen for inhibitors of T-cell receptor (TCR)-CD3 interaction: Fluorescence-based biochemical high throughput dose response assay to identify inhibitors of T-cell receptor (TCR)-CD3 interaction using a TAMRA-labeled BSA probe. Format: functional.
In assay [23] the target is Prothrombin (Bos taurus, UniProt P00735). Description: thrombin protease inhibitors – biochemical, fluorescence polarization, uHTS hits, dose response (AID 602369). The format is functional.
A short description of assay [24]: Shn3 3'UTR reporter signal decrease – cell-based, Clone20 osteoblasts, firefly luciferase, cherry-pick, set 2, Schnurri-3 inhibitor project, dose response (AID 720490).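 Further: actives lower the luminescence signal as inhibitors.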 The format is functional.
Assay [25] is described as follows: reduction of Shn3 3'UTR-driven luciferase in osteoblasts – cell-based, Clone20 osteoblasts, firefly luciferase, cherry-picked, dose response (AID 624132).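 Further: firefly luciferase luminescence from reporter carrying the Shn3 3'UTR in osteoblasts.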 Format: functional.
The nature of assay [26]: loss of viability in HepG2 cells – cell-based, CellTiter-Glo, cherry-picked, cytotoxicity control for Shn3 inhibitor project, dose response (AID 624134). Format: functional.
The nature of assay [27]: Shn3 transcript knock-down in Clone20 cells – cell-based, qPCR, cherry-pick, dose response (AID 743415). Format: functional.
Assay [28] in a line: EF1alpha-driven Renilla reporter with control 3'UTR suppression – Clone20-Shn3RL cells, dual-Glo, cherry-pick, set 2, counter-screen for Shn3 3'UTR targeting project, dose response (AID 720724). Format: functional, cell-based. The following applies: Dual-Go Shn3RL.
Assay [29] in a line: non-specific 3'UTR reporter inhibition in Clone20-Shn3RL – cell-based, Renilla luciferase, cherry-picked, counter-screen for Shn3 inhibitor project, dose response (AID 624133). Format: functional.

For `O=C(Nc1cccc2ccccc12)N1CCc2ccccc2C1`, the EC50 in assay [1] was > 29.9 µM (inactive); in assay [4], 0.266 µM (active). The IC50 in [2] was > 29.9 µM (inactive); in assay [3] it was > 9.99 µM (inactive); in assay [5], 9.86 µM (active).

`CCOc1ccc(-[n+]2c(-c3ccccc3)cn3c2CCCCC3)cc1`: the EC50 in assay [6] is 0.534 µM (active); in assay [8], > 150 µM (inactive); in assay [10] it was 16.3 µM (active); in [12] it was 7 µM (active). The half-maximal activity concentration (AC50) in assay [7] is 0.822 µM (active). Also, the IC50 is 8.69 µM (active) in assay [9] and > 80 µM (inactive) in [11].

With `COc1ccccc1OCc1cc(C(=O)N(C)CCC2CCCCO2)no1` (stereo unspecified), the IC50 in assay [13] and in [14] was > 67.5 µM (inactive) in each case.

For `CSc1nc(-c2cccs2)c(C#N)c(=O)[nH]1`, the IC50 in assay [15] is 3.22 µM (active).

On to `CSc1nc(O)c(C#N)c(-c2cccs2)n1`, for which the IC50 in assay [16] is > 138 µM (inactive).

As for `COc1cccc(CN(C)C(=O)CNC(=O)c2ccc(-c3ccccc3)cc2)c1OC`, the EC50 in [17] is > 29.9 µM (inactive). For the same compound, the IC50 in assay [18] is > 1.11 µM (active).

As for `O=C1NC(=O)N(CCc2ccccc2)C(=O)/C1=C/NNC(=O)c1ccccc1O`, the IC50 in assay [19] was 63.5 µM (active); in assay [21], > 100 µM (inactive); in assay [22], > 94 µM (inactive); in [23], 47.2 µM (active). Moreover, the EC50 in assay [20] was 69.9 µM (active).

With `COc1cc(CN2CCc3ccccc3C2)ccc1O`, the AC50 in assay [24] was 2.65 µM (active); in assay [25], 0.912 µM (active); in assay [26] it was 24.9 µM (active); in [27], 3.71 µM (active); in assay [28], 2.93 µM (active); in assay [29], 5.64 µM (active). Also, the EC50 in [1] is > 29.9 µM (inactive). Further, the IC50 in [2] was > 29.9 µM (inactive).

By EC50 is commonly meant the concentration needed to bring the measured effect to its halfway point. The term IC50 denotes the concentration that inhibits the measured activity by half. Usually AC50 stands for the midpoint of the concentration-response curve, whichever way the signal moves.
